The text below walks through data of ChEMBL document CHEMBL2074564, “P-glycoprotein interactions of nefazodone and trazodone in cell culture” (J Clin Pharmacol, 2001).

SMILES strings stand for the structures. pIC50: −log10 of the molar value.

Holding throughout (type): functional, cell-based
The target in data set [1] is T1, ATP-dependent translocase ABCB1 (Homo sapiens, UniProt P08183). The data set is described as follows: TP_TRANSPORTER: Western blot, LS180V cell.
The target in data set [2] is T1, ATP-dependent translocase ABCB1. The data set is described as follows: TP_TRANSPORTER: inhibition of Rhodamine 123 transepithelial transport (basal to apical) (R123: 5 uM) in Caco-2 cells. Background: Passage across Caco-2 layers is used to estimate intestinal permeability.
For data set [3] the target is unchanged. The data set is described as follows: TP_TRANSPORTER: transepithelial transport (basal to apical) in Caco-2 cells.

T1 sequence (P08183 whole entry): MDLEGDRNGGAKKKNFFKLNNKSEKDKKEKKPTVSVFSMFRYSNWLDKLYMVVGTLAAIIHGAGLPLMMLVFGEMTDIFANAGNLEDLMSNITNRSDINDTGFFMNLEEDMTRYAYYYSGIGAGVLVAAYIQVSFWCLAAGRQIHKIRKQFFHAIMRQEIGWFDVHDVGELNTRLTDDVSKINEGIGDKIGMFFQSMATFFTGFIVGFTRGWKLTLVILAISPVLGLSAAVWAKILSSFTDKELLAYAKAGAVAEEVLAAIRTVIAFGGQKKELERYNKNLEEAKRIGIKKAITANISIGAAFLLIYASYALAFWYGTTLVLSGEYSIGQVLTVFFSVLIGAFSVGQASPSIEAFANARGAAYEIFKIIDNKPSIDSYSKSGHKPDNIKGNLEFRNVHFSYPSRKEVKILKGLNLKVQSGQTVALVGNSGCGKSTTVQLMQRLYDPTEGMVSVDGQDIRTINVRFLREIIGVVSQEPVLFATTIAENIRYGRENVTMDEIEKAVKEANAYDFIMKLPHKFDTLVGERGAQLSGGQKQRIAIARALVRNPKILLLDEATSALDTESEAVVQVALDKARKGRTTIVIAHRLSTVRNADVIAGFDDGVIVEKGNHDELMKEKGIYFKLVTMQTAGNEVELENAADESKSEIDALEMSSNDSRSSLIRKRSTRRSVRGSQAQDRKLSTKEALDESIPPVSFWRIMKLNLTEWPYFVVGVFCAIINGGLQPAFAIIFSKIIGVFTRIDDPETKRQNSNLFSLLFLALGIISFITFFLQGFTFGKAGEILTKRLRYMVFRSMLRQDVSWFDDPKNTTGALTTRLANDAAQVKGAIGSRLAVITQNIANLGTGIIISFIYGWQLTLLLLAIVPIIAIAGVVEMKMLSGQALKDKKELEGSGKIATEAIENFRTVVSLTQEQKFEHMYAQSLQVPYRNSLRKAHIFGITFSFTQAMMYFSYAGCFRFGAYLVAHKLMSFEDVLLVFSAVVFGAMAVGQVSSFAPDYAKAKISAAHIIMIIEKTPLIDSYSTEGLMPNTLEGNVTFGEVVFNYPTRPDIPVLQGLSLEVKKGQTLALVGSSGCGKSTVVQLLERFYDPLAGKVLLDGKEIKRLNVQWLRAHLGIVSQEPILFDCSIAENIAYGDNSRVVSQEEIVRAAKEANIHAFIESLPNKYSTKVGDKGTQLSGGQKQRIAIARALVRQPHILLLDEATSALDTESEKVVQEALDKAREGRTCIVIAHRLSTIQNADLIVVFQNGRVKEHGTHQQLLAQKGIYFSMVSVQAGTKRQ

Consider `CCc1nn(CCCN2CCN(c3cccc(Cl)c3)CC2)c(=O)n1CCOc1ccccc1` [NEFAZODONE], for which the Activity result in data set [1] is “inducer [+]”; in data set [3], “is not a substrate [-]”. Further, in data set [2], the negative logarithm of the IC50 (pIC50) (in general, the IC50 on a negative log10 scale, so that one unit is a factor of ten) was 5.33.

In the case of `O=c1n(CCCN2CCN(c3cccc(Cl)c3)CC2)nc2ccccn12` [TRAZODONE], the Activity result in data set [1] is “inducer [+]”.
